The record followed here is ChEMBL document CHEMBL1121777, “Synthesis and antidepressant activity of substituted (omega-aminoalkoxy)benzene derivatives” (J Med Chem, 1981).

Structures are written as SMILES. In brackets after ≈: the same amount, converted by molar mass.

The species entered for series [1] is Mus musculus. The experiment in a line: The compound was tested for it's ability to prevent the reserpine induced hypothermia in mice. Type of series: functional.
For series [2], the species on record is Mus musculus. The experiment in a line: Ability to prevent the reserpine induced hypothermia in mice relative to amitriptyline. It counts as functional.
Series [3] deals with Mus musculus. The experiment in a line: Muscle relaxant effect was measured as ED50 which is the dose that causes muscle relaxation in 50% of the mice, po. Type of series: functional.
Series [4] concerns Mus musculus. The experiment in a line: The compound was tested for it's ability to reverse the reserpine induced hypothermia in mice, po. Type of series: functional.
The next series is filed under the species Cavia porcellus. The experiment in a line: Concentration required to reducing the histamine induced contraction by 50% was measured. Type of series: functional.
Series [5] is described as follows: Toxicity was measured as LD50,po. Particulars: mouse, in vivo. Type of series: organism-based.
Series [6] deals with Mus musculus. The experiment in a line: Antiphysostigmine effect was measured as ED50,po. It counts as functional.
The test system of series [7] is Rattus norvegicus. The experiment in a line: Antimuricide effect was observed in the olfactory bulb removed rats; antimuricide effect at 30 mg/kg; ++ = 51-70%. It counts as functional.
The species entered for series [8] is Mus musculus. The experiment in a line: The compound was tested for it's ability to reverse the reserpine induced hypothermia in mice. It counts as functional.
For series [9], the system named is Rattus norvegicus. The experiment in a line: Antimuricide effect was observed in the olfactory bulb removed rats; antimuricide effect at 30 mg/kg; ++ = 51 - 70%. Type of series: functional.
For series [10], the system named is Rattus norvegicus. The experiment in a line: Antimuricide effect was observed in the olfactory bulb removed rats; antimuricide effect at 30 mg/kg; + = 31-50%. Type of series: functional.
The test system of series [11] is Rattus norvegicus. The experiment in a line: Antimuricide effect was observed in the olfactory bulb removed rats; antimuricide effect at 30 mg/kg; + = 31 - 50%. It counts as functional.

In turn, `CNCCCCOc1ccccc1Nc1ccccc1.Cl` yielded a Relative potency in the series filed under Mus musculus [1] of 0.29.

With `CNCCCCOc1ccc(Cl)cc1Cc1ccccc1.Cl`, in the series filed under Mus musculus [2], the Relative potency worked out at 0.17.

On to `CNCCCCOc1ccccc1[S+]([O-])c1ccccc1.Cl` (stereo not given), for which the Relative potency in the series filed under Mus musculus [2] was 0.49.

Turning to `CNCCCCOc1ccccc1C(=O)Nc1ccccc1.Cl`, the Relative potency in the series filed under Mus musculus [2] came out at 0.36.

Consider `CN(C)CCCCOc1ccccc1Oc1ccccc1.Cl`, for which, in the series listed under Mus musculus [2], the Relative potency was 0.58.

Molecule `CNCCCCOc1ccccc1S(=O)(=O)c1ccccc1.Cl` registered a Relative potency in the series filed under Mus musculus [2] of 0.17.

`Cc1ccc(Cc2ccccc2OCCCCN(C)C)cc1.Cl` returned a Relative potency in the series filed under Mus musculus [2] of 0.18.

Molecule `CNCCCCOc1ccccc1Cc1ccccc1OC.Cl` showed a Relative potency in the series filed under Mus musculus [2] of 0.85.

For `CNCCCCOc1ccccc1Cc1ccc(Cl)cc1.Cl`, the Relative potency in the series listed under Mus musculus [2] is on record as 0.27.

For the molecule `CNCCCCOc1ccccc1C1CCCCC1.Cl`, the Relative potency in the series filed under Mus musculus [2] was 0.28.

The molecule `COc1ccc(Cc2ccccc2OCCCCN(C)C)cc1.Cl` yielded a Relative potency in the series filed under Mus musculus [2] of 0.

Molecule `CNCCCCOc1ccc(Cc2ccccc2)cc1.Cl` came in with a Relative potency in the series filed under Mus musculus [2] of 0.

Molecule `Cl.NCCCCOc1ccccc1Cc1ccccc1` gave a Relative potency in the series filed under Mus musculus [2] of 0.

For `CCNCCCOc1ccccc1Cc1ccccc1.Cl`, the Relative potency in the series filed under Mus musculus [2] is reported as 0.

Molecule `CN(C)CCCOc1ccccc1Cc1ccccc1.Cl` yielded a Relative potency in the series listed under Mus musculus [2] of 0.

In turn, `CNCCCCOc1ccccc1C(C)c1ccccc1.Cl` (stereo not given) gave a Relative potency in the series filed under Mus musculus [2] of 0.66.

As for `CNCCCCOc1ccccc1C(O)c1ccccc1.Cl` (stereo not given), the Relative potency in the series filed under Mus musculus [2] came to 0.

`CN(C)CCCCOc1ccccc1Sc1ccccc1.Cl` yielded a Relative potency in the series filed under Mus musculus [2] of 0.7.

By ED50 is commonly meant the dose at which the effect has come halfway, by size or by number of responders. A low value points to an effect at a small dose. As usually defined, the IC50 is the concentration at which inhibition is half-maximal. In general, LD50 refers to the dose expected to kill half of the subjects tested. A higher LD50 goes with a less toxic substance. For `CNCCCCOc1ccccc1Oc1ccccc1.Cl`, the ED50 in the series on Mus musculus [3] and in the series with Mus musculus [6] was greater than 200 mg/kg throughout. In the series with Mus musculus [4], the ED10 worked out at 8.8 mg/kg. In the series listed under Cavia porcellus, this molecule showed an IC50 of 1.6 µg/mL. Further, in the series listed under Mus musculus [2], the Relative potency came out at 1.1. Further, the 50% lethal dose (LD50) in [5] was determined as 600 mg/kg. The molecule further displayed an Effect in the series on Rattus norvegicus [7] of 51%.

In turn, `CNCCCCOc1ccc(O)cc1Cc1ccccc1.Cl` returned a Relative potency in the series listed under Mus musculus [2] of 0.31.

The molecule `Cl.c1ccc(Cc2ccccc2OCCCCN2CCCCC2)cc1` had a Relative potency in the series listed under Mus musculus [2] of 0.41.

In turn, `CN(C)CCCCOc1ccccc1Cc1ccccc1.Cl` returned a Relative potency in the series listed under Mus musculus [2] of 0.

The molecule `CNCCCCOc1ccccc1OCc1ccccc1.Cl` showed a Relative potency in the series listed under Mus musculus [2] of 0.

With `CNCCCCOc1ccccc1Cc1ccccc1.Cl`, the median effective dose (ED50) with Mus musculus [3] and with Mus musculus [6] was greater than 200 mg/kg each time. For the same molecule, in the series listed under Mus musculus [8], the ED10 came out at 12.5 mg/kg. Further, the IC50 in the series filed under Cavia porcellus is 1.1 µg/mL. The molecule also yielded a Relative potency in the series filed under Mus musculus [2] of 0.78. The molecule also returned an LD50 in [5] of 1000 mg/kg.

`CNCCCCOc1ccccc1Cc1ccc(OC)cc1.Cl` came in with a Relative potency in the series listed under Mus musculus [2] of 0.

On to `CCOc1ccccc1OCCCCNC.Cl`, for which the Relative potency in the series listed under Mus musculus [2] is 0.

On to `CNCCOc1ccccc1Cc1ccccc1.Cl`, for which, in the series filed under Mus musculus [2], the Relative potency is 0.

In the series listed under Cavia porcellus, `CN(C)CCOc1ccccc1Cc1ccccc1.Cl` yielded an IC50 of 0.001 µg/mL. This molecule also registered a Relative potency in the series listed under Mus musculus [2] of 0.

As for `CNCCCCOc1ccccc1Cc1ccc(C)cc1.Cl`, the Relative potency in the series filed under Mus musculus [2] came out at 0.44.

Regarding `CNCCCCOc1ccccc1CCc1ccccc1.Cl`, the Relative potency in the series filed under Mus musculus [2] was 0.

For `CN(C)CCCCOc1ccc(Cl)cc1Cc1ccccc1.Cl`, the Relative potency in the series filed under Mus musculus [2] was found to be 0.26.

The molecule `CN(C)CCCCOc1ccccc1Cc1ccccc1O.Cl` registered a Relative potency in the series listed under Mus musculus [2] of 0.77.

In the series filed under Mus musculus [2], `CN(C)CCCCOc1ccccc1Cc1ccc(Cl)cc1.Cl` came in with a Relative potency of 0.17.

For the molecule `CNCCCCOc1ccccc1Cl.Cl`, the Relative potency in the series listed under Mus musculus [2] is listed as 0.

Take `CNCCCCOc1ccc(OC)cc1.Cl`: the Relative potency in the series filed under Mus musculus [2] was 0.

The molecule `CNCCCCCOc1ccccc1Cc1ccccc1.Cl` registered a Relative potency in the series listed under Mus musculus [2] of 0.57.

`CCNCCCCOc1ccccc1Cc1ccccc1.Cl` returned a Relative potency in the series listed under Mus musculus [2] of 0.53.

In the series filed under Mus musculus [2], `CN1CCN(CCCCOc2ccccc2Cc2ccccc2)CC1.Cl` gave a Relative potency of 0.

On to `CC(c1ccccc1)c1ccccc1OCCCCN(C)C.Cl` (stereo not given), for which, in the series listed under Mus musculus [2], the Relative potency amounted to 0.36.

For `Cl.c1ccc(Cc2ccccc2OCCCCN2CCOCC2)cc1`, the Relative potency in the series filed under Mus musculus [2] was 0.3.

`CN(C)CCCCOc1ccccc1Cl.Cl` yielded a Relative potency in the series filed under Mus musculus [2] of 0.47.

`CNCCCCOc1ccccc1C(=O)c1ccccc1.Cl` registered a Relative potency in the series filed under Mus musculus [2] of 0.

Take `CNCCCCOc1ccccc1Cc1ccccc1O.Cl`: the median effective dose (ED50) in the series with Mus musculus [3] and with Mus musculus [6] was greater than 200 mg/kg each time. Moreover, the ED10 in the series filed under Mus musculus [8] was 15 mg/kg. The same molecule displayed an IC50 in the series filed under Cavia porcellus of 2.5 µg/mL. This molecule also returned a Relative potency in the series filed under Mus musculus [2] of 0.99. The molecule further came in with an LD50 in series [5] of 750 mg/kg. The Effect in the series on Rattus norvegicus [9] came to 51%.

In the case of `CN(C)CCCCCOc1ccccc1Cc1ccccc1.Cl`, the Relative potency in the series listed under Mus musculus [2] is 0.23.

Take `CNCCCCOc1ccccc1Sc1ccccc1.Cl`: the Effect in the series on Rattus norvegicus [10] amounted to 31%. In addition, the 50% effective dose (ED50) with Mus musculus [3] and in the series with Mus musculus [6] was greater than 200 mg/kg in each case. The ED10 with Mus musculus [4] was found to be 15 mg/kg. Further, in the series listed under Cavia porcellus, the half-inhibitory concentration (IC50) was found to be 2.2 µg/mL. Also, in the series filed under Mus musculus [2], the Relative potency is on record as 0.89. This molecule displayed a 50% lethal dose (LD50) in [5] of 980 mg/kg.

`Cc1cccc(Cc2ccccc2)c1OCCCCN(C)C.Cl` gave a Relative potency in the series listed under Mus musculus [2] of 0.66.

As for `CN(C)CCC=C1c2ccccc2CCc2ccccc21` [AMITRIPTYLINE], the 50% effective dose (ED50) in the series on Mus musculus [3] is 40 mg/kg; with Mus musculus [6] it was 35 mg/kg. Further, the Effect in the series on Rattus norvegicus [11] is listed as 31%. The molecule further yielded a half-maximal inhibitory concentration (IC50) in the series listed under Cavia porcellus of 0.0083 µg/mL (≈ 0.0299 µM). The molecule further showed a Relative potency in the series listed under Mus musculus [2] of 5.8. In series [5], this molecule had an LD50 of 300 mg/kg.

For `CN(C)CCCN1c2ccccc2CCc2ccccc21` [IMIPRAMINE], the median effective dose (ED50) with Mus musculus [3] stood at 190 mg/kg; in the series with Mus musculus [6], 120 mg/kg. The Effect in the series with Rattus norvegicus [11] was determined as 31%. In the series filed under Cavia porcellus, this molecule had an IC50 of 0.032 µg/mL (≈ 0.114 µM).
